This is an account of results in patent US20090155270A1, “CASPASE INHIBITORS, […] 3 INHIBITORS, FOR THE TREATMENT OF INFLUENZA” (priority 2003, published 2009).

For assay [1], the target named is caspase-3 (Homo sapiens, UniProt P42574).
In assay [2] the test system is influenza virus ribonucleic protein complexes (RNP's). The class given is cell-based, influenza A virus.
In assay [3] the test system is influenza A virus strain fowl plague virus (FPV). Type of assay: cell-based.
Assay [4] deals with Raf/MEK/ERK signal pathway (ERK). Type of assay: cell-based, homo sapiens.
The test system of assay [5] is reconstituted RNP complexes (PB2, PB1, PA, NP). The class given is cell-based, influenza A virus.
Assay [6] has as its system early or late viral proteins (NS1, NP, M1). Type of assay: cell-based, influenza A virus.
Assay [7] addresses T1, caspase-3 (Canis lupus familiaris, UniProt Q8MKI5).
T1 construct: endogenous in cells; host or cells: MDCK cells infected with influenza A virus FPV
T1 sequence (Q8MKI5 29-175 limits assumed): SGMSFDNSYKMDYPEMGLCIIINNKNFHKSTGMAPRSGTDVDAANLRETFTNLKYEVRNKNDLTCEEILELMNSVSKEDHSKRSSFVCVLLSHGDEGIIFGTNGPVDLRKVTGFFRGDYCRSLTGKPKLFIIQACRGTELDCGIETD
T1 sequence (Q8MKI5 176-277 limits assumed): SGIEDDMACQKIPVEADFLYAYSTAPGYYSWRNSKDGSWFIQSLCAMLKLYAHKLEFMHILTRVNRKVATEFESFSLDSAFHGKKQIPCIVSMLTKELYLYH
The class given is cell-based.

Assay [8] has as its system influenza A virus strain Bratislava/79 (fowl plague virus, FPV). The class given is cell-based.
For assay [9], the system named is influenza A virus nucleoprotein (NP). The class given is cell-based.
For assay [10], the system named is influenza A virus strain fowl plague virus (FPV). The class given is cell-based. The source holds these as a separate data set.
The test system is the same in assay [11]. The class given is cell-based. The source holds these as a separate data set.

Residues, ends and D or L forms follow the SMILES beside them. *: point of attachment. Cbz = O=C(OCc1ccccc1)*; CH2F = FC*

In the case of `N#CC(=C(/N)Sc1ccccc1N)/C(C#N)=C(\N)Sc1ccccc1N` [U0126], the “cleavage of the caspase substrate PARP” value at caspase-3 [1] is given as “did not lead to a modified cleavage of PARP”. Moreover, the “migration of the RNP's out of the cell nucleus” value (from here on “migration”) in assay [2] is listed as “efficiently be inhibited”. The “effect on the virus multiplication (titers of descendant viruses)” value in [3] was “again reduced”. Besides, the “virus-induced activity of ERK” value in [4] was “efficiently inhibited”. For the same molecule, the “prevention of staurosporine-induced bleeding of GFP and RNP complexes out of the cell nucleus” value in assay [5] is on record as “not”.

For `COC(=O)CC[C@H](NC(=O)[C@H](CC(=O)OC)NC(=O)OCc1ccccc1)C(=O)N[C@H](C(=O)N[C@@H](CC(=O)OC)C(=O)CF)C(C)C` [Z-DEVD-FMK], the “migration” value in [2] is “efficiently be inhibited”. In addition, the “effect on the virus multiplication (titers of descendant viruses)” value in [3] is reported as “did not have any effect”. Also, in assay [4], the “virus-induced activity of ERK” value is listed as “substantially identical”. The “effect on virus protein expression” value in assay [6] is on record as “no significant effect”. On caspase-3 [7], the “caspase inhibition, measured by the cleavage of the caspase substrate PARP, versus virus titer inhibition” value is “precisely correlated”. Moreover, in assay [8], the “effect on virus multiplication when present in the first two hours after infection and removed thereafter” value is reported as “no significant effects”; the “inhibition of virus multiplication when added 4 hours after infection” value is “continued to effectively inhibit virus multiplication”; the “reduction in the influenza virus titers” value was “approx. 60%”. Besides, the “prevention of staurosporine-induced bleeding of NP out of the cell nucleus” value in [9] was “can be prevented”. Also, in assay [5], the “prevention of staurosporine-induced bleeding of GFP and RNP complexes out of the cell nucleus” value is given as “can be prevented”.

With `CC(NC(=O)[C@H](Cc1ccccc1)NC(=O)OCc1ccccc1)C(=O)CF` (some centres unmarked) [Z-FA-FMK], in assay [2], the “migration” value is recorded as “not”. Besides, the “effect on virus multiplication” value in assay [8] was “did not show any effect”.

Take `COC(=O)C[C@H](NC(=O)[C@H](C)NC(=O)[C@@H](NC(=O)OCc1ccccc1)C(C)C)C(=O)CF` [Z-VAD-FMK] (Cbz-Val-Ala-Asp(OMe)-CH2F): the “inhibition of the virus multiplication” value in assay [8] is reported as “same efficiency”.

Turning to `CCC(=C/[C@H](C)C/C=C/C(C)=C/[C@@H](C)C(=O)[C@@H](C)[C@H](O)[C@@H](C)C/C(C)=C/C(=O)O)/C=C/[C@@H]1OC(=O)C=C[C@@H]1C` [leptomycin B], the “prevention of staurosporine-induced bleeding of NP out of the cell nucleus” value in assay [9] was “not”.

Regarding `CN[C@@H]1C[C@H]2O[C@@](C)([C@@H]1OC)n1c3ccccc3c3c4c(c5c6ccccc6n2c5c31)C(=O)NC4` [staurosporine], the “localization of the nucleoprotein after apoptosis induction” value in [9] is on record as “distributed over the complete cell”. The “localization of GFP and RNP complexes after apoptosis induction” value in assay [5] is recorded as “distributed over the complete cell”.

B1: procaspase-3 (protein, UniProt P42574 1-277, looked up)
pro-form: MENTENSVDSKSIKNLEPKIIHGSESMDSGISLDNSYKMDYPEMGLCIIINNKNFHKSTGMTSRSGTDVDAANLRETFRNLKYEVRNKNDLTREEIVELMRDVSKEDHSKRSSFVCVLLSHGEEGIIFGTNGPVDLKKITNFFRGDRCRSLTGKPKLFIIQACRGTELDCGIETDSGVDDDMACHKIPVEADFLYAYSTAPGYYSWRNSKDGSWFIQSLCAMLKQYADKLEFMHILTRVNRKVATEFESFSFDATFHAKKQIPCIVSMLTKELYFYH
modifications: pro-form
In the case of B1, the “virus multiplication in transfected cells” value in assay [10] is on record as “increased virus multiplication”. Also, the “increase in the titers of descendant viruses” value in assay [11] came out at 30 fold.
